Broadly, the IC50 is the point on the concentration scale where inhibition reaches its midpoint.

This note sets out measurements from patent US8987273B2, “Substituted imidazo[1,2-B]pyridazines” (Bayer Intellectual Property GmbH, priority 2010, dated 2015).

For assay [1], the target named is His-tagged human recombinant kinase full-length Akt1 (Homo sapiens (Human), UniProt P31749). Put plainly: Akt1 kinase assay (TR-FRET). The class given is biochemical. Particulars: 10 μM ATP; median. The method, boiled down: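 Full-length His-tagged human Akt1 from insect cells, pre-incubated 15 min with compound, then 60 min at 22° C with 10 μM ATP and 1 μM biotinylated peptide in pH 7.5 TRIS buffer. Phosphopeptide detected by HTRF (665/620 nm ratio); data normalised to no-inhibitor and no-enzyme controls.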
His-tagged human recombinant kinase full-length Akt1, sequence (P31749 whole entry): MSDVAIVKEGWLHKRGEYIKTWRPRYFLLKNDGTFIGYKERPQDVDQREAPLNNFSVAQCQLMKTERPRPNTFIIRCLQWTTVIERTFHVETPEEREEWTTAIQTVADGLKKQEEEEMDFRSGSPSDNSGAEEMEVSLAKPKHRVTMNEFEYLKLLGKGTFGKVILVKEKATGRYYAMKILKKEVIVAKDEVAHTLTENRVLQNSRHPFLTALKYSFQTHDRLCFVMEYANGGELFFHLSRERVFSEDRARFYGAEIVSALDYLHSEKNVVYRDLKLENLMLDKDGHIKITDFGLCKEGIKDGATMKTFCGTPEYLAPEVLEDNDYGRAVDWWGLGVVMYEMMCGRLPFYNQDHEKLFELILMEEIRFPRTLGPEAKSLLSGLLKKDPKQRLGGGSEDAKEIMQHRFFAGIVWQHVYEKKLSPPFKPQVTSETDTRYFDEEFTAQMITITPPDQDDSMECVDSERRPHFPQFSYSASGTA
(Time-resolved FRET reads energy transfer from a long-lived donor to a nearby acceptor.)

Assay [2] deals with His-tagged human recombinant kinase full-length Akt2 (Homo sapiens (Human), UniProt P31751). Nature of the assay: Akt2 kinase assay (TR-FRET). It counts as biochemical. Particulars: 10 μM ATP; median. The method, boiled down:
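PDK1-activated full-length His-Akt2 (insect-cell expressed, ~0.2 ng/μl final) pre-incubated with compound 15 min, then reacted 60 min at 22 °C with 10 μM ATP and 1 μM biotinylated peptide in Tris pH 7.5/MgCl2/DTT. EDTA stop; phospho-peptide read by HTRF 665/620 ratio, normalised to no-inhibitor and no-enzyme controls.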

Assay [3] concerns phospho-AKT at S473 in KPL4 breast tumour cell line. Nature of the assay: Cellular p-AKT1/2/3-S473 assay. It counts as cell-based. Particulars: KPL4 cells, 2 hours treatment; median; read-out: pAKT-S743 median IC50.
A further assay concerns KPL-4 cells. Put plainly: Tumor cell proliferation assay (CellTiter-Glo). The following applies: KPL4; 72 h drug exposure. It counts as cell-based. A general note: ATP-based viability assays read luminescence as a measure of living cells.

His-tagged human recombinant kinase full-length Akt2, sequence (P31751 whole entry): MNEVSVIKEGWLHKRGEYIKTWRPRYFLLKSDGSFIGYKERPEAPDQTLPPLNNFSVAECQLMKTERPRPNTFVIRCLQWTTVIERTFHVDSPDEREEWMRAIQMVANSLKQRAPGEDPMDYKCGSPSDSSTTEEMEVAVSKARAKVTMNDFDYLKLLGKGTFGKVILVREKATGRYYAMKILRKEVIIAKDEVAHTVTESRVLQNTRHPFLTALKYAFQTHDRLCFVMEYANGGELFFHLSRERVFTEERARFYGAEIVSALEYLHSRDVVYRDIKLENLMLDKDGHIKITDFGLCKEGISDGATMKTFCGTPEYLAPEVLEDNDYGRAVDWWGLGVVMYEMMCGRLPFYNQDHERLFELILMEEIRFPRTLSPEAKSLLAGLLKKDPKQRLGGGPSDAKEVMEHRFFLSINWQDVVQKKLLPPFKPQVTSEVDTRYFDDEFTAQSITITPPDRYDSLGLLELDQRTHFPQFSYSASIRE

On to `NC1(c2ccc(-c3nn4c(-c5ccc(F)cc5)c(Cl)nc4cc3-c3ccccc3)cc2)CCC1` [Example 7-0, 1-{4-[2-Chloro-3-(4-fluorophenyl)-7-phenyl-imidazo[1,2-b]pyridazin-6-yl]-phenyl}-cyclobutylamine], for which the IC50 in assay [1] turned out to be 0.099 µM; in assay [2], 0.106 µM; in assay [3] it was 0.61 µM; with KPL-4 cells, 3030 nM.
In the case of `NC(=O)/C=C/c1cnc2cc(-c3ccccc3)c(-c3ccc(C4(N)CCC4)cc3)nn12` [Example 8-0, (E)-3-{6-[4-(1-Amino-cyclobutyl)-phenyl]-7-phenyl-imidazo[1,2-b]pyridazin-3-yl}-acrylamide], the half-inhibitory concentration (IC50) in assay [1] was determined as 0.038 µM; in assay [2] it was 0.222 µM; in assay [3] it was 0.05 µM; with KPL-4 cells, 2420 nM.
Consider `C=Cc1cnc2cc(-c3ccccc3)c(-c3ccc(C4(N)CCC4)cc3)nn12` [Example 9-0, 1-[4-(7-Phenyl-3-vinyl-imidazo[1,2-b]pyridazin-6-yl)-phenyl]-cyclobutylamine], for which the half-inhibitory concentration (IC50) was 0.044 µM in assay [1], 0.326 µM in assay [2], 0.03 µM in assay [3] and 1870 nM with KPL-4 cells.
On the same counts, the results for `Cc1nc2cc(-c3ccccc3)c(-c3ccc(C4(N)CCC4)cc3)nn2c1/C=C/C(N)=O` [Example 10-0, (E)-3-{6-[4-(1-Amino-cyclobutyl)-phenyl]-2-methyl-7-phenyl-imidazo[1,2-b]pyridazin-3-yl}-acrylamide] are 18 µM, 20 µM, 10 µM and 2490 nM.
Regarding `COC(=O)/C=C/c1c(C)nc2cc(-c3ccccc3)c(-c3ccc(C4(N)CCC4)cc3)nn12` [Example 11-0, (E)-3-{6-[4-(1-Amino-cyclobutyl)-phenyl]-2-methyl-7-phenyl-imidazo[1,2-b]pyridazin-3-yl}-acrylic acid methyl ester], the IC50 was found to be 5.97 µM in assay [1], 10.1 µM in assay [2], 10 µM in assay [3] and 5280 nM in the assay with KPL-4 cells.
On the same counts, the results for `C=Cc1c(C)nc2cc(-c3ccccc3)c(-c3ccc(C4(N)CCC4)cc3)nn12` [Example 12-0, 1-[4-(2-Methyl-7-phenyl-3-vinyl-imidazo[1,2-b]pyridazin-6-yl)-phenyl]-cyclobutylamine] are 8.94 µM, 16.7 µM, 10 µM and 3200 nM.
